In PMC12040169 (PLOS Biology, 2025) one finds viability data, which are given here for 75 compounds.

A word on the viability: it is a read-out of living cells in per cent, often relative to untreated cells.

The nature of this data set: in vitro. The settings on record: human, hela cells, % viability.
`O=C(O)Cc1nnnn1-c1ccccc1` [CBK262984]: the viability at 28.5 h, 10 µM came to 102%.

Regarding `O=C1c2ccccc2NC(c2ccc(O)cc2)N1/N=C/c1ccc(O)cc1` (stereo not drawn) [CBK262985], the viability at 28.5 h, 10 µM was found to be 84.5%.

`CCc1ccc(/C=N/N2CCN(Cc3cccc4ccccc34)CC2)cc1` [CBK262986]: the viability at 28.5 h, 10 µM stood at 104%.

Consider `O=C1C(=CNCCC(c2ccccc2)c2ccccc2)C(=O)c2ccccc21` [CBK262987], for which the viability at 28.5 h, 10 µM stood at 97%.

On to `O=C(COc1cccc2ccccc12)NNC(=O)Cc1ccc(Cl)cc1` [CBK262988], for which the viability at 28.5 h, 10 µM turned out to be 112%.

On to `CCOC(=O)N1CCN(C(=O)COc2cccc3ccccc23)CC1` [CBK262992], for which the viability at 28.5 h, 10 µM was 93%.

`Cc1cccc(C(=O)NNC(=O)COc2cccc3ccccc23)c1O` [CBK262993]: the viability at 28.5 h, 10 µM is 87.7%.

With `N/C(Cc1ccc([N+](=O)[O-])cc1)=N\OC(=O)COc1cccc2ccccc12` [CBK262994], the viability at 28.5 h, 10 µM worked out at 92.8%.

`O=C(CSc1nnc(-c2ccc(Cl)cc2)n1-c1ccccc1)N/N=C/c1ccco1` [CBK262996]: the viability at 28.5 h, 10 µM turned out to be 91.6%.

As to `NS(=O)(=O)c1ccc(CCNC=C2C(=O)c3ccccc3C2=O)cc1` [CBK262997], the viability at 28.5 h, 10 µM was 99%.

Take `N/C(=N\OC(=O)COc1cccc2ccccc12)c1ccccn1` [CBK262999]: the viability at 28.5 h, 10 µM is 96.2%.

For the compound `O=C(CSc1nnc(-c2ccc(Cl)cc2)n1-c1ccccc1)N/N=C/c1ccccn1` [CBK263001], the viability at 28.5 h, 10 µM came out at 94.6%.

On to `C(=N\N1CCN(Cc2cccc3ccccc23)CC1)/c1ccncc1` [CBK263003], for which the viability at 28.5 h, 10 µM is 94.6%.

In the case of `NC(=O)C(=O)Nc1nc(-c2ccccc2)cs1` [CBK263005], the viability at 28.5 h, 10 µM was 98.4%.

As to `CC1=NN(c2ccc([N+](=O)[O-])cc2)C(=O)/C1=C\NCCc1ccc(S(N)(=O)=O)cc1` [CBK263006], the viability at 28.5 h, 10 µM turned out to be 92.6%.

On to `O=C1C(=CNCCN2CCOCC2)C(=O)c2ccccc21` [CBK263008], for which the viability at 28.5 h, 10 µM was found to be 109%.

As for `Cc1ccc(/C(N)=N/OC(=O)COc2cccc3ccccc23)cc1` [CBK263009], the viability at 28.5 h, 10 µM came to 98.5%.

Turning to `NNC(=O)CSc1nnc(-c2ccc(Cl)cc2)n1-c1ccccc1` [CBK263010], the viability at 28.5 h, 10 µM stood at 81.3%.

Consider `Brc1cccc(/C=N/N2CCN(Cc3cccc4ccccc34)CC2)c1` [CBK263011], for which the viability at 28.5 h, 10 µM is 98%.

As for `Cc1cccc(N/C=C(/C#N)c2nc(-c3ccc4c(c3)OCO4)cs2)c1C` [CBK263013], the viability at 28.5 h, 10 µM was 96.4%.

On to `O=C(COc1cccc2ccccc12)Nc1cccnc1` [CBK263015], for which the viability at 28.5 h, 10 µM worked out at 115%.

As to `COc1ccc(NC(=O)c2cc([N+](=O)[O-])ccc2N2CCN(C)CC2)cc1` [CBK263017], the viability at 28.5 h, 10 µM turned out to be 102%.

Regarding `CCOC(=O)c1c(NC(=O)Cn2nc(C(F)(F)F)c(Cl)c2C)sc2c1CCCC2` [CBK263019], the viability at 28.5 h, 10 µM was 98.5%.

In the case of `O=C(c1cccc(F)c1)N1CCN(Cc2ccccn2)CC1` [CBK263023], the viability at 28.5 h, 10 µM worked out at 88.5%.

For `Cc1cc(C)nc(Nc2ncc(O)n2-c2ccccc2C)n1` [CBK263024], the viability at 28.5 h, 10 µM stood at 91.2%.

Take `Cc1ccc(OCCOc2cccc(/C=N/n3cnnc3)c2)cc1` [CBK263028]: the viability at 28.5 h, 10 µM turned out to be 111%.

For the compound `CCC(Sc1nnc2c3ccccc3n(C)c2n1)C(=O)Nc1sc2c(c1C#N)CCCC2` (stereo not drawn) [CBK263031], the viability at 28.5 h, 10 µM stood at 92.6%.

For `COc1cc(NC(=O)c2cc([N+](=O)[O-])ccc2N2CCN(C)CC2)c2ncccc2c1` [CBK263034], the viability at 28.5 h, 10 µM was 90%.

Take `Cc1cc(C)c2c(c1)-c1c(ssc1=S)C(C)(C)N2C(=O)CSc1nncn1C` [CBK263035]: the viability at 28.5 h, 10 µM is 106%.

Turning to `COc1ccc(/C=N/NS(=O)(=O)c2ccc(C)cc2)cc1CSc1ccccn1` [CBK263036], the viability at 28.5 h, 10 µM worked out at 96%.

As to `O=C(Cc1ccccc1)N1CCN(Cc2ccc3ccccc3c2)CC1` [CBK263037], the viability at 28.5 h, 10 µM worked out at 112%.

With `Cc1cc(C)c2c(c1)-c1c(ssc1=S)C(C)(C)N2C(=O)CSc1nnc[nH]1` [CBK263038], the viability at 28.5 h, 10 µM came to 88.5%.

As for `O=C(Cc1ccccc1)N1CCN(Cc2ccccn2)CC1` [CBK263039], the viability at 28.5 h, 10 µM was found to be 88.6%.

Consider `C=CCn1c2ccccc2c2nnc(SC(CC)C(=O)N3c4ccccc4Sc4ccccc43)nc21` (stereo not drawn) [CBK263040], for which the viability at 28.5 h, 10 µM came to 90.7%.

For the compound `Cc1ccnc(N2C(=O)c3ccc(C(=O)c4ccc5c(c4)C(=O)N(c4cc(C)ccn4)C5=O)cc3C2=O)c1` [CBK263041], the viability at 28.5 h, 10 µM came to 93.4%.

Regarding `CC1CCc2c(sc(NC(=O)COc3ccccc3)c2C(=O)Nc2ccccc2Cl)C1` (stereo not drawn) [CBK263044], the viability at 28.5 h, 10 µM stood at 101%.

Turning to `COc1cccc(C2Nc3ccc4ccccc4c3C3=C2C(=O)CC(C)(C)C3)c1OCC(=O)O` (stereo not drawn) [CBK263045], the viability at 28.5 h, 10 µM worked out at 89.8%.

For `COC(=O)c1c(NC(=O)Cn2nc([N+](=O)[O-])c(Cl)c2C)sc2c1CCCC2` [CBK263047], the viability at 28.5 h, 10 µM worked out at 83.9%.

Consider `CN1CCN(c2ccc(/C=c3\sc4nc5ccccc5n4c3=O)cc2[N+](=O)[O-])CC1` [CBK263048], for which the viability at 28.5 h, 10 µM came out at 89.3%.

With `O=C(O)CCSc1nnnn1C1CCCCC1` [CBK263052], the viability at 28.5 h, 10 µM was determined as 88.9%.

Turning to `O=C(NCCCn1ccnc1)c1cnn2c(C(F)(F)F)cc(-c3cccs3)nc12` [CBK263060], the viability at 28.5 h, 10 µM came out at 88.7%.

`Cc1c(NC(=O)c2cn3c4c(c(N5CCN(C)CC5)c(F)cc4c2=O)OCN3C)c(=O)n(-c2ccccc2)n1C` [CBK263061]: the viability at 28.5 h, 10 µM came out at 92.9%.

Regarding `O=C(NCCN1CCOCC1)c1cnn2c(-c3ccccc3)cc(-c3ccccc3)nc12` [CBK263062], the viability at 28.5 h, 10 µM was found to be 94.5%.

On to `CC1CCc2c(sc(NC(=O)Cn3cnc([N+](=O)[O-])n3)c2C(N)=O)C1` (stereo not drawn) [CBK263064], for which the viability at 28.5 h, 10 µM worked out at 91.3%.

For `CCC(=O)Nc1ccc2oc(-c3cccc(C)c3)nc2c1` [CBK263065], the viability at 28.5 h, 10 µM came out at 89.6%.

`Cc1cc(C)c2oc(-c3ccc(C)c(NC(=O)COc4ccccc4C)c3)nc2c1` [CBK263067]: the viability at 28.5 h, 10 µM is 103%.

Consider `CN(CP(=O)(O)CCc1ccccc1)S(C)(=O)=O` [CBK263068], for which the viability at 28.5 h, 10 µM was found to be 95.1%.

As to `Cc1cccc(N2C(=O)c3ccc(C(=O)c4ccc5c(c4)C(=O)N(c4cccc(C)n4)C5=O)cc3C2=O)n1` [CBK263069], the viability at 28.5 h, 10 µM turned out to be 87.8%.

For `CCn1cc(C(=O)O)c(=O)c2cc(F)c(N(C)CCc3ccc(OC)c(OC)c3)cc21` [CBK263070], the viability at 28.5 h, 10 µM is 97.1%.

`Cc1c(N2C(=O)/C(=C3\C(=O)Nc4ccc([N+](=O)[O-])cc43)SC2=S)c(=O)n(-c2ccccc2)n1C` [CBK263071]: the viability at 28.5 h, 10 µM came out at 115%.

On to `O=C(COc1ccc(Br)cc1)Nc1ccc(Cl)c(-c2nc3ccccc3[nH]2)c1` [CBK263075], for which the viability at 28.5 h, 10 µM turned out to be 92%.

Turning to `COc1ccc(N2C(=O)CC(NNC(N)=O)C2=O)cc1` (stereo not drawn) [CBK263080], the viability at 28.5 h, 10 µM is 92.1%.

In the case of `Cc1ccc(C(=O)Cn2c3ccccc3n3ncnc23)cc1` [CBK263081], the viability at 28.5 h, 10 µM is 99.6%.

Turning to `CC(=O)Oc1ccc(NC(=O)CC2Nc3cc(C)c(C)cc3NC2=O)cc1` (stereo not drawn) [CBK263088], the viability at 28.5 h, 10 µM was determined as 89.5%.

With `C(=C\CSc1nc2ccccc2[nH]1)/CSc1nc2ccccc2[nH]1` [CBK263090], the viability at 28.5 h, 10 µM is 107%.

For `Nc1nnc(SC/C=C/CSc2nnc(N)s2)s1` [CBK263092], the viability at 28.5 h, 10 µM turned out to be 90.3%.

For the compound `O=C(CCNc1n[nH]c(=O)[nH]c1=O)N/N=C\c1ccccc1F` [CBK263093], the viability at 28.5 h, 10 µM worked out at 86.3%.

As to `COc1cccc(N2C(=O)/C(=C/c3ccc(O)c(O)c3)SC2=S)c1` [CBK263096], the viability at 28.5 h, 10 µM came out at 94.7%.

In the case of `O=C(Cn1c2ccccc2n2ncnc12)c1ccc(-c2ccccc2)cc1` [CBK263097], the viability at 28.5 h, 10 µM was found to be 106%.

For the compound `Cc1ccc(S(=O)(=O)N/C(=N/C(C)C(=O)O)c2ccccc2)cc1` (stereo not drawn) [CBK263099], the viability at 28.5 h, 10 µM came out at 92.2%.

On to `Cc1ccc(OCC(=O)O/N=C(\N)Cc2ccc([N+](=O)[O-])cc2)c(C)c1` [CBK263102], for which the viability at 28.5 h, 10 µM stood at 101%.

Regarding `NS(=O)(=O)c1ccc(CCNC(=O)c2ccc(C#CC3(O)CCCCC3)cc2)cc1` [CBK263104], the viability at 28.5 h, 10 µM was found to be 93.9%.

`O=S(=O)(/N=C(/NS(=O)(=O)c1cccc2ccccc12)c1ccccc1)c1ccccc1` [CBK263105]: the viability at 28.5 h, 10 µM was 112%.

With `COc1cccc(/C=N\NC(=O)CN2CCN(Cc3ccccc3)CC2)c1O` [CBK263106], the viability at 28.5 h, 10 µM is 97.1%.

`Cc1nc2n(/N=C/c3ccc([N+](=O)[O-])cc3)c3ccccc3n2c1C#N` [CBK263107]: the viability at 28.5 h, 10 µM was 88.4%.

For the compound `COc1cc(CN2CCN(Cc3cccc([N+](=O)[O-])c3)CC2)c([N+](=O)[O-])cc1OC` [CBK263111], the viability at 28.5 h, 10 µM is 99.9%.

Consider `CC1(C)CN=C(N2CCN(c3c4c(c(C#N)c5nc6ccccc6n35)CCC4)CC2)S1` [CBK263113], for which the viability at 28.5 h, 10 µM came out at 103%.

Take `Cc1ccc(C(=O)N/C(=C\c2cccc([N+](=O)[O-])c2)c2n[nH]c(=S)[nH]2)cc1` [CBK263114]: the viability at 28.5 h, 10 µM is 87%.

Turning to `CC(=O)NS(=O)(=O)c1ccc(NC(=N)Nc2nc(C)cc(C)n2)cc1` [CBK263117C], the viability at 28.5 h, 10 µM is 90.1%.

Consider `O=C(O)/C=C/c1cn(-c2ccccc2)nc1-c1cccs1` [CBK263119], for which the viability at 28.5 h, 10 µM came out at 102%.

Consider `O=C(CCN1C(=O)c2cccc([N+](=O)[O-])c2C1=O)Nc1ccccc1Cl` [CBK263121], for which the viability at 28.5 h, 10 µM came out at 91.6%.

Consider `N#Cc1c2c(c(Nc3ccc(C4CCCCC4)cc3)n3c1nc1ccccc13)CCC2` [CBK263122], for which the viability at 28.5 h, 10 µM turned out to be 95.1%.

Turning to `Cc1c(Cc2ccccc2)c(N2CCN(C3c4ccccc4-c4ccccc43)CC2)n2c(nc3ccccc32)c1C#N` [CBK263124], the viability at 28.5 h, 10 µM came out at 111%.

`O=C(Nc1cccc(-c2nc3ncccc3o2)c1)c1cccc(OCc2ccccc2)c1` [CBK263126]: the viability at 28.5 h, 10 µM worked out at 86.2%.

Turning to `Cc1cc(I)ccc1NC(=O)CCN1C(=O)c2cccc([N+](=O)[O-])c2C1=O` [CBK263128], the viability at 28.5 h, 10 µM stood at 88.3%.
